Experimental data published in patent US7662853B2, “Monoacetyldiacylglycerol derivative for the treatment of sepsis” (priority 2004, dated 2010).

Tests used:
T-cells = experiment: T-cell proliferation (3H-thymidine incorporation, SI); assay type: cell-based, C57BL/6 mice; conditions: 1 μg/ml, 7th day, CPM in sample/CPM in control
Description: Splenocytes were collected from C57BL/6 mice (provided from Asan Institute for Life Sciences Animal Lab., Seoul, Korea) spleens. Then, single cell suspensions were obtained by repeated aspiration and flushing. Red blood cells were removed using ammonium chloride and then passed through nylon wool to remove debris and clumps. T-cells were purified using magnetic bead (MACS bead, Miltenyi Biotec, bergich gladbach, Germany) containing anti-goat IgG MACS bead, Miltenyi Biotec, bergich gladbach, Germany) or anti-mouse CD4 (MACS bead, Miltenyi Biotec, bergich gladbach, Germany) or anti-mouse CD8 antibody (MACS bead, Miltenyi Biotec, bergich gladbach, Germany) (Turner and Dockrell (1996) Immunology, 87: 339-342).
T cell suspensions were suspended in Isocove's modified Dulbecco's medium (IMDM, Gibco, Grand Island, N.Y.) supplemented with 10% fetal bovine serum (referred as ‘FBS’ hereinafter) (Gibco, Grand Island, N.Y.). […] On the 6th day, cells were incubated with 1 μCi ^3H-thymidine/well for 24 hours. On the 7th day, the cells were harvested and the […] (referred as ‘SI’ hereinafter) was calculated by the following Mathematical Formula 1. SI=^3H-thymidine absorbed by wells of experimental group (CPM in sample)/^3H-thymidine absorbed by wells of control group (CPM in control) [Mathematical Formula 1]

Monocytes = Monocytes proliferation (3H-thymidine incorporation, SI); assay type: cell-based; conditions: human monocytes, 1 μg/ml, 7th day
Procedure: Monocytes were isolated from human whole blood using Histopaque 1077. And then, monocytes (5×10^6 cells/ml) were allowed to adhere to tissue culture flask for 3 hours in a 5% CO2 incubator. After 3 hours, non-adherent cells were removed and adherent cells were placed in 96-well plates in RPMI 1640 medium (GIBCO, Grand Island, N.Y.) supplemented with 10% FBS. 5×10^4 viable cells per well were cultured in 96-well plates, with 1 μg/ml of Compound 1˜5. On the 6th day, cells were incubated with 1 μCi ^3H-thymidine/well for 24 hours. On the 7th day, the cells were harvested and the incorporation of ^3H-thymidine was measured. Si was calculated by the above mentioned formula 1.

Row | SMILES | SI (T-cells) | SI (±S.E) (Monocytes)
1 | CCCCCCCC/C=C\CCCCCCCC(=O)OCC(COC(C)=O)OC(=O)CCCCCCCCCCCCCCC (centres unmarked) [Compound 1, 1-oleoyl-2-2palmitoyl-3-acetylglycerol] | 2.01 ± 0.43 | 9.97 ± 0.10
2 | CCCCCCCC/C=C\CCCCCCCC(=O)OC(COC(C)=O)COC(=O)CCCCCCCCCCCCCCC (centres unmarked) [Compound 2, 1-palmitoyl-2-oleoyl-3-acetylglycerol] | 2.03 ± 0.54 | 10.42 ± 0.15
3 | CC/C=C\C/C=C\C/C=C\CCCCCCCC(=O)OC(COC(C)=O)COC(=O)CCCCCCCCCCCCCCC (centres unmarked) [Compound 4, 1-palmitoyl-2-linolenoyl-3-acetylglycerol] | 1.98 ± 0.26 | 10.21 ± 0.18
4 | CCCCC/C=C\C/C=C\C/C=C\C/C=C\CCCC(=O)OC(COC(C)=O)COC(=O)CCCCCCCCCCCCCCC (centres unmarked) [Compound 5, 1-palmitoyl-2-arachidonoyl-3-acetylglycerol] | 2.02 ± 0.38 | 9.75 ± 0.09
